Key:
[1] = system: human choriocarcinoma JEG-3 cells; assay: WST-1 cell proliferation assay (cytotoxicity); assay type: cell-based; settings: from 1.0 × 10^−6 M to lower concentrations; 24 h
Description: Dual-luciferase reporter assays were carried out primarily according to the method described in a previous study. In short, full-length sequences of human oestrogen receptor α and β were amplified by RT-PCR using mRNA from MCF-7 (Supplementary Table 3), and inserted into a pSVSPORT1 (Invitrogen); the resulting constructs were termed pSVhERα and pSVhERβ. A reporter plasmid containing ERE was constructed by inserting four tandem repeats of an ERE of Xenopus laevis vitellogenin A2 into a pGL4.23 vector (Promega), and was termed pGL4-ERE-luc. All of the plasmids constructed were confirmed by sequence analysis. […] The assays were performed in quadruplicate, and the results were expressed as the fold induction of the control after normalization against Renilla luciferase activity. Sigmoidal dose-effect curves were calculated using the GraphPad Prism 4 software. The IC50 values were calculated on the basis of the sigmoidal dose-effect curves. […] After another 24 h, 20 μl of 5 mM WST-1 with 0.2 mM 1-Methoxy-5-methylphenazinium methylsulfate was added for 4 h before the absorbance at 490 nm was measured with a microplate reader (iMark, BioRad). […]
Cell viability was determined using the cell proliferation reagent WST-1 (DOJINDO, Mashiki, Japan). […]
1-Methoxy-5-methylphenazinium methylsulfate was added for four hours before the absorbance at 490 nm was measured with a microplate reader (iMark, BioRad). […]

CD-1 mice = assay: Uterotrophic assay, 3 days beginning on PND 21; assay type: in vivo; settings: combined with 400 μg kg^−1 bw d^−1 E2; 250 and 500 mg kg^−1 d^−1 groups; P<0.01
Description: […] […] Ten mice per group were used for the assays. Error bars indicate the s.d.'s from the average. *P<0.05 compared with the corresponding control. **P<0.01 compared with the corresponding control. Significance was tested by Fisher's LSD test.

female CD-1 mice = assay: Exposure experiment through drinking water; assay type: in vivo; settings: 10-day exposure via drinking water; no statistically significant difference (P>0.05)
Description: Mice with a maximal difference in body weight of 1 g were selected for the experiments and randomly assigned to either the treatment or control groups. […] The animals were fed ad libitum an oestrogen-free diet from Trophic Animal Feed High-tech Co., Ltd. (Nantong, China), and drinking water was provided ad libitum in glass bottles. Before the experiments, the mice were randomly assigned to five groups (n=8). Ultra-pure water was used as a control. FULV was dissolved in ultra-pure water to a concentration of 100 ng l^−1 and used as a positive control. […] Two plastic drinking bottles labelled ‘BPA-free', of different brands, were purchased and denoted Bottle A and Bottle B. The plastic bottles were filled with boiling ultra-pure water from a stainless steel electric water heater and allowed to cool down to room temperature before the animal experiment. The BHPF levels in the cooled boiled waters from Bottle A, Bottle B and the stainless steel electric water heater were determined by GC–MS. No BHPF was detected in the cooled boiled water from the stainless steel electric water heater. The cooled boiled waters from Bottle A and Bottle B were transferred to glass bottles during the experiment. The exposure experiment was performed for 10 days beginning on PND 24. After the period of exposure, the mice were weighed and killed in turns for each group, whereby in each turn only one mouse in a group was killed. Blood was collected by cardiac puncture soon after each animal was killed, and the uteri were removed, blotted and weighed by one experimenter to reduce the risk of bias in the data collection and immediately frozen in liquid nitrogen for gene expression analysis. The relative uterine weight was calculated to evaluate the anti-uterotrophic activity. […] The serum BHPF levels were analysed by GC–MS using the same method as that for human serum. The gene expressions of sprr2a and sprr2b in the uteri were determined by Q-RT-PCR.

Oc1ccc(C2(c3ccc(O)cc3)c3ccccc3-c3ccccc32)cc1 [BHPF, 9,9-bis(4-hydroxyphenyl)-fluorene]
cytotoxicity [1]: no obvious cytotoxicity
effect on uterotrophic effect of E2 (CD-1 mice): inhibited the uterotrophic effect of E2
expression of sprr2a in the uteri (Q-RT-PCR) (female CD-1 mice): decreased
